Assay results as given in US8193353B2, “6-1H-imidazo-quinazoline and quinolines derivatives, new potent analgesics and anti-inflammatory agents” (Rottapharm S.p.A, priority 2006, dated 2012).
Like-named read-outs stand apart in the source and are kept apart here.

Tests used:
[1] = even at the higher doses tested
Description: The performance of representative compounds of Formula (I), in the tests described above, is summarized for both the analgesic effect and the anti-inflammatory effect in Table 4, where the activity of the compounds of the invention is compared with the performance in the same test of well known standards.

[2] = system: Zymosan induced paw volume increase; assay: Zymosan-induced paw oedema; format: in vivo, rat; conditions: oral, 2 hours after challenge
Description: (§1) The interplantar injection of Zymosan-induced mechanical hyperalgesia was used as a model of inflammatory pain (Meller, Neuropharmacology, 1994, 33, 1471-1478). In this model, typically a male Sprague-Dawley or Wistar rat (200-250 g) receives an interplantar injection of 3 mg/100 μl zymosan into one hind paw. A marked inflammation occurs in this hind paw. Drugs are administered orally for evaluation of efficacy, 30 min. before the inflammatory insult. The hyperalgesia induced by zymosan administration was evaluated using the Randall-Selitto method (Arch. Int. Pharmacodyn., 1957, 111, 409). The quantitation of the analgesic effect is achieved by an analgesimeter, which consist in applying to the inflamed paw an increasing weight (from 130-140 g up to 500 g). The difference in the mechanical pain threshold between the basal value (generally 230-250 g) and the one tolerated by the animals treated with the drug, determined 4 hours after the inflammatory challenge, is defined as mechanical hyperalgesia. Mechanical hyperalgesia is expressed for the compounds of the invention as ED50, which is the dose of the administered compound able to increase the pain threshold by 50% in comparison with the group of control animals. The corresponding ED100, representing the dose able of reducing of 100% the pain threshold, can be calculated for those cases where there is a linear dose-response relationship. In vivo anti-inflammatory effect exerted by the compound of the invention can be assessed in the same Zymosan induced inflammation test described above, by measuring the volume of the oedema induced by the inflammatory agent. The oedema was evaluated as the increase in the volume of the Zymosan injected paw within a time of 0-2 hrs. The measurements of the variation of the oedema volume of the paw were recorded using hydroplethysmometer, which consists of two plastic cuvettes containing a surfactant liquid, the larger one being used for immersion of the paw, connected to the smaller one which contains a transducer capable of recording small displacements of the volume used for the measure. The paw is immersed in the cuvettes up to the tibiotarsal joint. The volume of the liquid displaced is proportional to the extent of the inflammation. The efficacy of the compounds of the invention in preventing oedema formation is expressed as ED30, is measured 2 hours after the inflammatory challenge, and represents the dose able of reducing of 30%, the Zymosan induced paw volume increase in comparison to control animals (animals treated with Zymosan but treated with only distilled water instead of the testing compound). The corresponding ED50, representing the dose able of reducing of 50% the Zymosan induced paw volume increase, can be calculated for those cases where there is a linear dose-response relationship. In both the experiments, for each test compound, at least three doses were used, with 10 animals per group. Compounds of the invention were tested at 10, 20 and 40 mg/Kg.

[3] = system: Zymosan-induced mechanical hyperalgesia; assay: Zymosan-induced mechanical hyperalgesia (Randall-Selitto), inflammatory pain; format: in vivo, rat; conditions: for ED50: Rattus norvegicus, read-out: Analgesia ED50
Description: as §1

[4] = system: mechanical hyperalgesia associated with STZ-induced diabetes; assay: STZ-induced diabetes mechanical hyperalgesia (neuropathic pain); format: in vivo, rat; conditions: for ED50: Rattus norvegicus, ip, read-out: ED50 0.5 hrs; for ED100 0.5 hrs: i.p.
Description: Painful diabetic neuropathy is one of the most common complications of insulin-dependent diabetes in man; in particular, diabetes can be associated with neuropathic pain which fails to be treated by classical analgesics. Streptozotocin (STZ)-induced diabetes in the rat has been increasingly used as a model of painful diabetic neuropathy to assess the efficacies of potential analgesic agents (C. Courteix, Pain 1993, 53, 81-8). The compounds of the invention were tested for efficacy in reducing mechanical hyperalgesia associated with STZ-induced diabetes in the rat, according to the experimental model as described by the literature. Diabetes was produced with the injection of a single dose (75 mg/Kg i.p.) of STZ. In the following four weeks after the induction of diabetes the clinical symptoms (weight, body and skin temperature, motility and hyperglycemia) progressively developed by the animals, are strictly monitored. After four weeks, the scores obtained in diabetic rats to various pain stimuli (in particular mechanical stimuli) were greater than those in normal rats, indicating hyperalgesia. The hyperalgesia induced by diabetes was evaluated using the Randall-Selitto method as above described, and quantitated using the analgesimeter. Also in this case, the difference in the mechanical pain threshold between the basal value (generally 230-250 g) and the one tolerated by the animals treated with the drug, is defined as mechanical hyperalgesia. The compounds of the invention were administered i.p. (solution, Tween 80, 10% in saline) at different doses, and mechanical hyperalgesia was measured at the reported time, as maximum percent effect (MPE) which represents the difference (%) in pain threshold between the animals treated with the drug and the controls that received only the vehicle, compared with the weight borne by naïf non-diabetic controls. A 100% protection means that the diabetic animals treated with the compound can tolerate the same stimulus (weight) as the naïf non-diabetic animals. MPE higher than 100% means that the diabetic animal treated with the compound can tolerate stimuli (weight) higher than the control non-diabetic animals (hypoalgesia).
In particular, from the MPE data at 0.5 hrs, the doses yielding a protection of 50% (ED50) and 100% (ED100) have been calculated.

[5] = system: CFA-induced prolonged inflammation; assay: CFA model of chronic inflammatory pain; format: in vivo, rat; conditions: for ED50: Rattus norvegicus, ip; for ED50 / ED100 0.5 hrs: calculated from MPE data at 0.5 hrs; for ED100 0.5 hrs: i.p.
IL-1β = IL-1β production in IL-1 stimulated human chondrosarcoma cell line; format: cell-based
Description: (§2) The compounds of the invention have been found effective in interfering with COX-2 and cytokines production, in several cell lines; examples of these effects are reported in Table 3, for COX-2 and IL-1β and IL-6 cytokines, in IL-1 stimulated human chondrosarcoma cell line.

COX-2 = COX-2 production in IL-1 stimulated human chondrosarcoma cell line; format: cell-based; conditions: for inhibition at 0.3 µM / inhibition at 1 µM / inhibition at 10 µM: Homo sapiens
Description: as §2

IL-6 = IL-6 production in IL-1 stimulated human chondrosarcoma cell line; format: cell-based
Description: as §2

[6] = oral, 30 min before zymosan, 4 hours after challenge
[7] = calculated from MPE data at 0.5 hrs

## CS(=O)(=O)Nc1ccc([N+](=O)[O-])cc1Oc1ccccc1 [Nimesulide]
[1]
  ulcerative side effects: ulcerative side effects
[2]
  Oedema Reduction ED30: 0.5 mg/kg
[3]; [6]
  ED50: 7.4 mg/kg
  Analgesia ED100: 161 mg/kg

## CN(C)CCC=C1c2ccccc2CCc2ccccc21 [Amitriptyline, reference compound]
[4]; 3 mg/kg i.p.
  MPE 0.5 hrs.: 44%
  MPE 1.5 hrs.: 40%
  MPE 3 hrs.: 5%
[4]; 10 mg/kg i.p.
  MPE 0.5 hrs.: 68%
  MPE 1.5 hrs.: 77%
[4]; 30 mg/kg i.p.
  MPE 0.5 hrs.: 65%
  MPE 1.5 hrs.: 69%
  MPE 3 hrs.: 23%

## Cc1ccc(-c2cc(C(F)(F)F)nn2-c2ccc(S(N)(=O)=O)cc2)cc1 [Celecoxib]
[2]
  Oedema Reduction ED30: 13.8 mg/kg
[3]; [6]
  ED50: 9 mg/kg
  Analgesia ED100: 1172 mg/kg

## COc1cccc(C2(O)CCCCC2CN(C)C)c1 (stereo not shown) [Tramadol, reference compound]
[3]
  ED50: 25.7 mg/kg
[3]; [6]
  Analgesia ED100: 405 mg/kg
[4]; 3 mg/kg i.p.
  MPE 0.5 hrs.: 26%
  MPE 1.5 hrs.: 53%
  MPE 3 hrs.: 7%
[4]; 10 mg/kg i.p.
  MPE 0.5 hrs.: 58%
  MPE 1.5 hrs.: 48%
  MPE 3 hrs.: 27%
[4]; 30 mg/kg i.p.
  MPE 0.5 hrs.: 54%
  MPE 1.5 hrs.: 64%
  MPE 3 hrs.: 23%
[4]; 50 mg/kg i.p.
  MPE 0.5 hrs.: 81%
  MPE 1.5 hrs.: 60%
  MPE 3 hrs.: 43%
[4]; 0.5 h
  ED50: 10.9 mg/kg
[4]; extrapolated from a dose-response curve approaching the 100% protection
  ED100 0.5 hrs: 251 mg/kg

## CN1C(C(=O)Nc2ccccn2)=C(O)c2ccccc2S1(=O)=O [Piroxicam, reference compound]
[5]; 30 mg/kg i.p.
  MPE 0.5 hrs.: 102%
  MPE 1.5 hrs.: 111%
  MPE 3 hrs.: 54%
  MPE 6 hrs.: 24%
  MPE 24 hrs.: 38%

## c1cn(-c2ccc3nc(-c4ccc5c(c4)OCO5)ncc3c2)cn1 [Example 3, [2-(1,3-benzodioxol-5-yl)-6-(1H-imidazol-1-yl)]quinazoline]
[5]; 3 mg/kg i.p.
  MPE 0.5 hrs.: 54%
  MPE 1.5 hrs.: 90%
  MPE 3 hrs.: 32%
  MPE 6 hrs.: 5%
[5]; 10 mg/kg i.p.
  MPE 0.5 hrs.: 216%
  MPE 1.5 hrs.: 188%
  MPE 3 hrs.: 85%
  MPE 6 hrs.: 23%
  MPE 24 hrs.: 3%
[5]; 30 mg/kg i.p.
  MPE 0.5 hrs.: 344%
  MPE 1.5 hrs.: 198%
  MPE 3 hrs.: 101%
  MPE 6 hrs.: 49%
  MPE 24 hrs.: 41%
[5]
  ED50: 2.7 mg/kg
  ED100 0.5 hrs: 4.7 mg/kg
IL-1β
  inhibition at 0.3 µM: 20%
  inhibition at 1 µM: 15%
  inhibition at 10 µM: 40%
COX-2
  inhibition at 0.3 µM: 35%
  inhibition at 1 µM: 64%
  inhibition at 10 µM: 75%
COX-2; IL-1 stimulated human chondrosarcoma cell line, read-out: IC50 (inhibition of COX-2 production)
  IC50: 630 nM
[2]
  Oedema Reduction ED30: 172 mg/kg
IL-6
  inhibition at 0.3 µM: 20%
IL-6; 1 μM
  inhibition at 1 µM: 35%
[3]; [6]
  ED50: 2.8 mg/kg
  Analgesia ED100: 5 mg/kg
[4]; 3 mg/kg i.p.
  MPE 0.5 hrs.: 73%
  MPE 1.5 hrs.: 88%
  MPE 3 hrs.: 50%
  MPE 6 hrs.: 24%
[4]; 10 mg/kg i.p.
  MPE 0.5 hrs.: 141%
  MPE 1.5 hrs.: 143%
  MPE 3 hrs.: 98%
  MPE 6 hrs.: 49%
[4]; 30 mg/kg i.p.
  MPE 0.5 hrs.: 283%
  MPE 1.5 hrs.: 273%
  MPE 3 hrs.: 263%
  MPE 6 hrs.: 264%
[4]; [7]
  ED50: 2.9 mg/kg
  ED100 0.5 hrs: 5.3 mg/kg

## c1cn(-c2ccc3nc(-c4ccc5c(c4)OCCO5)ncc3c2)cn1 [Example 5]
IL-1β
  inhibition at 0.3 µM: 20%
  inhibition at 1 µM: 30%
  inhibition at 10 µM: 40%
COX-2
  inhibition at 0.3 µM: 50%
  inhibition at 1 µM: 60%
  inhibition at 10 µM: 70%
IL-6; 10 μM
  inhibition at 10 µM: 35%

## c1ccc(-c2ncc3cc(-n4ccnc4)ccc3n2)cc1 [Example 1, [2-phenyl-6-(1H-imidazol-1-yl)]quinazoline]
[5]; 3 mg/kg i.p.
  MPE 0.5 hrs.: 52%
  MPE 1.5 hrs.: 4%
[5]; 10 mg/kg i.p.
  MPE 0.5 hrs.: 67%
  MPE 1.5 hrs.: 63%
  MPE 3 hrs.: 29%
  MPE 6 hrs.: 22%
  MPE 24 hrs.: 5%
[5]; 30 mg/kg i.p.
  MPE 0.5 hrs.: 367%
  MPE 1.5 hrs.: 368%
  MPE 3 hrs.: 321%
  MPE 6 hrs.: 239%
  MPE 24 hrs.: 60%
[5]
  ED50: 5.5 mg/kg
  ED100 0.5 hrs: 9.6 mg/kg
IL-1β
  inhibition at 0.3 µM: 10%
COX-2
  inhibition at 0.3 µM: 20%
[2]; Rattus norvegicus, read-out: Oedema Reduction ED50
  ED50: 97 mg/kg
[2]
  Oedema Reduction ED30: 7.3 mg/kg
IL-6
  inhibition at 0.3 µM: 35%
[3]; [6]
  ED50: 6.5 mg/kg
  Analgesia ED100: 10 mg/kg
[4]; 3 mg/kg i.p.
  MPE 0.5 hrs.: 24%
[4]; 10 mg/kg i.p.
  MPE 0.5 hrs.: 41%
  MPE 1.5 hrs.: 68%
[4]; 30 mg/kg i.p.
  MPE 0.5 hrs.: 236%
  MPE 1.5 hrs.: 225%
  MPE 3 hrs.: 171%
  MPE 6 hrs.: 34%
[4]; [7]
  ED50: 5.5 mg/kg
  ED100 0.5 hrs: 9.6 mg/kg
